Experimental data taken from US20220220115A1, “HETEROCYCLIC COMPOUNDS AND USES THEREOF” (Nuvation Bio Inc., priority 2019, published 2022).

Assays:
[1] = tested on: phospho-CDC2 (Tyr15) in A427 cells; assay: Phospho-CDC2 (Tyr15) sandwich ELISA in A427 cells; format: cell-based; conditions: Homo sapiens, A-427, treatment for a specified time (e.g., 24 hr)
Experimental: Changes in the levels of phospho-CDCl2 following treatment of cells with test compounds were assessed by enzyme-linked immunosorbent assay (ELISA). A427 cells were plated in 6-well plates and cultured for 24 hr to approximately 80-90% confluency. Medium was replaced, and the cells were treated with the vehicle control or the test compound at several different concentrations. After incubation of treated cells in cell culture conditions for a specified time (e.g., 24 hr), cells were rinsed with ice-cold PBS and lysed in 1× cell lysis buffer containing protease inhibitors and phosphatase inhibitors. The cells were scraped from the plate with a cell scraper after a brief incubation on ice and transferred to a centrifuge tube, and then subjected to three freeze-thaw cycles in liquid nitrogen and a 37° C. water bath for further lysis. The lysates were centrifuged to pellet cell debris (using, for example, a 10 min centrifugation of 2000×g at 4° C.) and the supernatants transferred to fresh tubes on ice. The protein concentrations of the samples were estimated by the Bradford method or equivalent. The ELISA was carried out with the PathScan® Phospho-CDCl2 (Tyr15) Sandwich ELISA Kit (Cat. #7176, Cell Signaling Technology, Danvers, Mass.) according to the manufacturer's instructions.

WEE1 kinase enzyme = biological target: T1, WEE1 kinase enzyme (Homo sapiens, UniProt P30291); assay: WEE1 IC50 determination, LanthaScreen Terbium Labeled TR-FRET kinase assay; format: biochemical; conditions: WEE1 enzyme 1 nM, ATP 10 μM
T1 construct: purchased Invitrogen, Life Technologies PR7373A
T1 sequence (P30291 whole entry): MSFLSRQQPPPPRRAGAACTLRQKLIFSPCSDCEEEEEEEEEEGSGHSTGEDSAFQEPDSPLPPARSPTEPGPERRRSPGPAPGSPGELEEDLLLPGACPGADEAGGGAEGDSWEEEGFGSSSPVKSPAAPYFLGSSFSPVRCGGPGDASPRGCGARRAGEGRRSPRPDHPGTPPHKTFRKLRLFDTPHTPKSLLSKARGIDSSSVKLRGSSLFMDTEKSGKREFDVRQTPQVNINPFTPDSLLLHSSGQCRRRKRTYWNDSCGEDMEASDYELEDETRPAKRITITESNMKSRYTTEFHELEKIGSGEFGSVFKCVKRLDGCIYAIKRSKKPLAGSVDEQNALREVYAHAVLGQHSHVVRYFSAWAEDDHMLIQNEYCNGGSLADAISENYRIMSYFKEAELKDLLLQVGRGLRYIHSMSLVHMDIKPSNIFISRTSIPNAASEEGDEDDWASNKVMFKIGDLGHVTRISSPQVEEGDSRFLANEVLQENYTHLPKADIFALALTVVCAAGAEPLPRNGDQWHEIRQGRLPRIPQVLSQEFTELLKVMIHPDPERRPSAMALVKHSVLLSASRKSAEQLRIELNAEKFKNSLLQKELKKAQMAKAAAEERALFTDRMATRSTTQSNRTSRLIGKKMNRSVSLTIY
Experimental: IC50 values of compounds against WEE1 kinase enzyme were determined by LanthaScreen™ Terbium Labeled TR-FRET assay. Kinase assays were performed in 1× kinase buffer (#PV6135, Invitrogen, Life Technologies Grand Island, N.Y.) where total reaction volume was 10 μL in low-volume 384-well plates (#4511, Corning). Serially diluted compounds (3-fold) were incubated with WEE1 Enzyme (1 nM) (#PR7373A, Invitrogen, Life Technologies Grand Island, N.Y.) for 10 min, and a mixture of ATP (10 μM) (#A1852, Sigma, St. Louis, Mo.) and fluorescent-PolyGT substrate (200 nM) (#PV3610, Invitrogen, Life Technologies, Grand Island, N.Y.) was added and incubated in dark at room temperature for 1 h. After 1 h, 10 μL stop solution containing Terbium labeled antibody (4 nM) (#PV3529, Invitrogen, Life Technologies Grand Island, N.Y.) and EDTA (#E5134, Sigma, St. Louis, Mo.) (20 mM) in TR-FRET dilution buffer (#PV3574, Invitrogen, Life Technologies, Grand Island, N.Y.) was added. Readings were taken in a Synergy Neo Plate reader (BioTek, Winooski, Vt.) at single excitation of 340 nm and dual emission at 495 nm and 520 nm respectively.
The % activity of test samples was calculated as (Sample−Min)*100/(Max−Min). [Max: DMSO control, complete reaction with enzyme & DMSO and Min: No enzyme & DMSO]. Percent inhibition (100−% activity) was fitted to the “four-parameter logistic model” in XLfit for determination of IC50 values.

A427 cell line = assay: Cytotoxicity assay in A427 cell line (resazurin); format: cell-based; conditions: Homo sapiens, A-427, A427 cells, 72 hr incubation, inhibition of proliferation
Experimental: A427 (HTB-53; ATCC), a lung epithelial cell line, was seeded in medium (MEM, 41090101; Gibco) at a cell count of 1500 cells per 100 μL per well in a 96 well edge plate (167425; ThermoFisher). Cells were allowed to grow at 37° C. for 24 hr in 5% CO2 environment (culture conditions) in a Nuaire incubator (humidified). Serially diluted test compounds (100 μL) within the desired testing concentration ranges were added to the culture plate and the cells were further incubated in culture conditions for 72 hr. The experiment was terminated at the designated incubation time by replacing the medium with 100 μL of 1 mM of resazurin (R7017; Sigma) prepared in culture medium, and the plates were further incubated in culture conditions for 4-6 hr. Fluorescence was recorded using a multimodal plate reader (Biotek Synergy Neo) at an excitation wavelength of 535 nm and emission wavelength of 590 nm to obtain relative fluorescence units. Data were analysed as follows: the background fluorescence (blank containing only medium) value was subtracted from each reading and normalized with the vehicle control (DMSO treated cells) to obtain percent survival/proliferation. Percent survival was subtracted from 100 to get the percent inhibition of proliferation which was used to calculate IC50 values. Potency of compounds in other cell lines (such as A549, As-Pc-1, Panc 10.05, A172, U-87 MG) may be determined in an analogous manner.

SMILES: CC(C)n1c(=O)c2cnc(Nc3ccc4c(c3)CNCC4)nc2n1-c1cccc(C2(CO)CC2)n1 [1.224, 1-(6-(1-(hydroxymethyl)cyclopropyl)pyridin-2-yl)-2-isopropyl-6-((1,2,3,4-tetrahydroisoquinolin-7-yl)amino)-1,2-dihydro-3H-pyrazolo[3,4-d]pyrimidin-3-one]
- IC50 [1]: 57 nM
- IC50 (WEE1 kinase enzyme): 4 nM
- IC50 (A427 cell line): 243 nM

SMILES: O=c1c2cnc(Nc3ccc4c(c3)CCNC4)nc2n(-c2cccc(C3(CO)CC3)n2)n1CC(F)(F)F [1.225, 1-(6-(1-(hydroxymethyl)cyclopropyl)pyridin-2-yl)-6-(1,2,3,4-tetrahydroisoquinolin-6-ylamino)-2-(2,2,2-trifluoroethyl)-1H-pyrazolo[3,4-d]pyrimidin-3(2H)-one]
- IC50 (WEE1 kinase enzyme): 1 nM
- IC50 (A427 cell line): 375 nM

SMILES: CC(C)n1c(=O)c2cnc(Nc3ccc4c(c3)CCNC4)nc2n1-c1nc(C(C)(C)C)cs1 [Compound No. 1.1, 1-(4-(tert-butyl)thiazol-2-yl)-2-isopropyl-6-((1,2,3,4-tetrahydroisoquinolin-6-yl)amino)-1,2-dihydro-3H-pyrazolo[3,4-d]pyrimidin-3-one]
- IC50 (WEE1 kinase enzyme): 4 nM
- IC50 (A427 cell line): 530 nM

SMILES: CC(C)n1c(=O)c2cnc(Nc3ccc4c(c3)CNCC4)nc2n1-c1nc(C(C)(C)C)cs1 [Compound No. 1.2, 1-(4-(tert-butyl)thiazol-2-yl)-2-isopropyl-6-((1,2,3,4-tetrahydroisoquinolin-7-yl)amino)-1,2-dihydro-3H-pyrazolo[3,4-d]pyrimidin-3-one]
- IC50 (WEE1 kinase enzyme): < 0.2 nM
- IC50 (A427 cell line): 585 nM

SMILES: CC(C)n1c(=O)c2cnc(Nc3ccc4c(c3)CCNC4)nc2n1-c1csc(N2CCOCC2)n1 [Compound No. 1.3, 2-isopropyl-1-(2-morpholinothiazol-4-yl)-6-((1,2,3,4-tetrahydroisoquinolin-6-yl)amino)-1,2-dihydro-3H-pyrazolo[3,4-d]pyrimidin-3-one]
- IC50 (WEE1 kinase enzyme): 8 nM
- IC50 (A427 cell line): > 30000 nM

SMILES: CCn1c(=O)c2cnc(Nc3ccc4c(c3)CCNC4)nc2n1-c1cccc(C(C)(C)C#N)n1 [Compound No. 1.4, 2-(6-(2-ethyl-3-oxo-6-((1,2,3,4-tetrahydroisoquinolin-6-yl)amino)-2,3-dihydro-1H-pyrazolo[3,4-d]pyrimidin-1-yl)pyridin-2-yl)-2-methylpropanenitrile]
- IC50 (WEE1 kinase enzyme): 3 nM
- IC50 (A427 cell line): 320 nM

SMILES: CC(C)(C)c1csc(-n2c3nc(Nc4ccc5c(c4)CCNC5)ncc3c(=O)n2C2CC2)n1 [Compound No. 1.5, 1-(4-(tert-butyl)thiazol-2-yl)-2-cyclopropyl-6-((1,2,3,4-tetrahydroisoquinolin-6-yl)amino)-1,2-dihydro-3H-pyrazolo[3,4-d]pyrimidin-3-one]
- IC50 (WEE1 kinase enzyme): 18 nM
- IC50 (A427 cell line): 1270 nM

SMILES: CC(C)(C)c1csc(-n2c3nc(Nc4ccc5c(c4)CNCC5)ncc3c(=O)n2C2CC2)n1 [Compound No. 1.6, 1-(4-(tert-butyl)thiazol-2-yl)-2-cyclopropyl-6-((1,2,3,4-tetrahydroisoquinolin-7-yl)amino)-1,2-dihydro-3H-pyrazolo[3,4-d]pyrimidin-3-one]
- IC50 [1]: 1120 nM
- IC50 (WEE1 kinase enzyme): 6 nM
- IC50 (A427 cell line): 1140 nM

SMILES: CC(C)n1c(=O)c2cnc(Nc3ccc4c(c3)CNCC4)nc2n1-c1csc(N2CCOCC2)n1 [Compound No. 1.7, 2-isopropyl-1-(2-morpholinothiazol-4-yl)-6-((1,2,3,4-tetrahydroisoquinolin-7-yl)amino)-1,2-dihydro-3H-pyrazolo[3,4-d]pyrimidin-3-one]
- IC50 (WEE1 kinase enzyme): 57 nM
- IC50 (A427 cell line): > 30000 nM

SMILES: CCn1c(=O)c2cnc(Nc3ccc4c(c3)CNCC4)nc2n1-c1nc(C(C)(C)C)cs1 [Compound No. 1.8, 1-(4-(tert-butyl)thiazol-2-yl)-2-ethyl-6-((1,2,3,4-tetrahydroisoquinolin-7-yl)amino)-1,2-dihydro-3H-pyrazolo[3,4-d]pyrimidin-3-one]
- IC50 (WEE1 kinase enzyme): 4 nM
- IC50 (A427 cell line): 993 nM

SMILES: CCn1c(=O)c2cnc(Nc3ccc4c(c3)CCNC4)nc2n1-c1nc(C(C)(C)C)cs1 [Compound No. 1.10, 1-(4-(tert-butyl)thiazol-2-yl)-2-ethyl-6-((1,2,3,4-tetrahydroisoquinolin-6-yl)amino)-1,2-dihydro-3H-pyrazolo[3,4-d]pyrimidin-3-one]
- IC50 (WEE1 kinase enzyme): 7 nM
- IC50 (A427 cell line): 1490 nM

SMILES: CC(C)(C)c1csc(-n2c3nc(Nc4ccc5c(c4)CCNC5)ncc3c(=O)n2CC(F)(F)F)n1 [Compound No. 1.11, 1-(4-(tert-butyl)thiazol-2-yl)-6-((1,2,3,4-tetrahydroisoquinolin-6-yl)amino)-2-(2,2,2-trifluoroethyl)-1,2-dihydro-3H-pyrazolo[3,4-d]pyrimidin-3-one]
- IC50 (WEE1 kinase enzyme): 19 nM
- IC50 (A427 cell line): 1580 nM

SMILES: CC(C)(C)c1csc(-n2c3nc(Nc4ccc5c(c4)CNCC5)ncc3c(=O)n2CC(F)(F)F)n1 [Compound No. 1.12, 1-(4-(tert-butyl)thiazol-2-yl)-6-((1,2,3,4-tetrahydroisoquinolin-7-yl)amino)-2-(2,2,2-trifluoroethyl)-1,2-dihydro-3H-pyrazolo[3,4-d]pyrimidin-3-one]
- IC50 (WEE1 kinase enzyme): 3 nM
- IC50 (A427 cell line): 2370 nM

SMILES: CC(C)(C#N)c1cccc(-n2c3nc(Nc4ccc5c(c4)CNCC5)ncc3c(=O)n2CC(F)(F)F)n1 [Compound No. 1.32, 2-methyl-2-(6-(3-oxo-6-(1,2,3,4-tetrahydroisoquinolin-7-ylamino)-2-(2,2,2-trifluoroethyl)-2,3-dihydro-1H-pyrazolo[3,4-d]pyrimidin-1-yl)pyridin-2-yl)propanenitrile]
- IC50 (WEE1 kinase enzyme): 10 nM
- IC50 (A427 cell line): 223 nM

SMILES: CC(C)(C#N)c1cccc(-n2c3nc(Nc4ccc5c(c4)CCNC5(C)C)ncc3c(=O)n2CC(F)(F)F)n1 [Compound No. 1.33, 2-(6-(6-(1,1-dimethyl-1,2,3,4-tetrahydroisoquinolin-6-ylamino)-3-oxo-2-(2,2,2-trifluoroethyl)-2,3-dihydro-1H-pyrazolo[3,4-d]pyrimidin-1-yl)pyridin-2-yl)-2-methylpropanenitrile]
- IC50 (WEE1 kinase enzyme): 5 nM
- IC50 (A427 cell line): 513 nM

SMILES: CC(C)(CF)c1cccc(-n2c3nc(Nc4ccc5c(c4)CCNC5(C)C)ncc3c(=O)n2C2CC2)n1 [Compound No. 1.79, 2-cyclopropyl-6-((1,1-dimethyl-1,2,3,4-tetrahydroisoquinolin-6-yl)amino)-1-(6-(1-fluoro-2-methylpropan-2-yl)pyridin-2-yl)-1,2-dihydro-3H-pyrazolo[3,4-d]pyrimidin-3-one]
- IC50 (WEE1 kinase enzyme): 9 nM
- IC50 (A427 cell line): 970 nM

SMILES: CCn1c(=O)c2cnc(Nc3ccc4c(c3)CNCC4)nc2n1-c1cccc(C(C)(C)C#N)n1 [Compound No. 1.223, 2-(6-(2-ethyl-3-oxo-6-(1,2,3,4-tetrahydroisoquinolin-7-ylamino)-2,3-dihydro-1H-pyrazolo[3,4-d]pyrimidin-1-yl)pyridin-2-yl)-2-methylpropanenitrile]
- IC50 (WEE1 kinase enzyme): 7 nM
- IC50 (A427 cell line): 102 nM
